Usually inhibition stands for the relative decrease from the control value, in per cent.

Data on five compounds can be found in patent EP4745135A1 (Gluetacs Therapeutics (Shanghai) Co., Ltd., priority 2023, dated 2025).

For one experiment, the target named is T1, CK1α (Homo sapiens, UniProt P48729+Q96SW2).
T1 construct: effects of the compounds of the present disclosure on the expression of target proteins in cells; endogenous in cells; host or cells: human PBMCs (Milecell Biotechnologies)
Put plainly: Western blot, degradation of substrate protein in hPBMCs. It counts as cell-based.

The next experiment addresses T2, IKZF1 (Homo sapiens, UniProt Q13422+Q96SW2).
T2 construct: effects of the compounds of the present disclosure on the expression of target proteins in cells; endogenous in cells; host or cells: human PBMCs (Milecell Biotechnologies)
Described as above. In kind it is cell-based.

The target in the next experiment is T3, IKZF2 (Homo sapiens, UniProt Q96SW2+Q9UKS7).
T3 construct: effects of the compounds of the present disclosure on the expression of target proteins in cells; endogenous in cells; host or cells: human PBMCs (Milecell Biotechnologies)
The description is as above. In kind it is cell-based.

Another experiment addresses T4, IKZF3 (Homo sapiens, UniProt Q96SW2+Q9UKT9).
T4 construct: effects of the compounds of the present disclosure on the expression of target proteins in cells; endogenous in cells; host or cells: human PBMCs (Milecell Biotechnologies)
Described as above. In kind it is cell-based.

In the next experiment the target is T5, WEE1 (Homo sapiens, UniProt P30291+Q96SW2).
T5 construct: effects of the compounds of the present disclosure on the expression of target proteins in cells; endogenous in cells; host or cells: human PBMCs (Milecell Biotechnologies)
Described as above. In kind it is cell-based.

A further experiment relates to GSPT1. Described as above. In kind it is cell-based, Human.
The target of experiment [1] is T6, human Cereblon WT GST-tagged protein (Homo sapiens, UniProt Q96SW2).
T6 construct: purchased CISBIO 64BDCRBNPEH
Briefly: CRBN-binding affinity, HTRF (CEREBLON BINDING kit). As to conditions: for inhibition at 0.5 µM: read-out: Inhibition Rate at 0.5 µM (%); for inhibition at 2 µM: read-out: Inhibition Rate at 2 µM (%).

Experiment [2] has as its system Human multiple myeloma cell (MM.1S). Briefly: Tumor cell proliferation inhibition (CellTiter-Meiluncell luminescent cell viability assay). The conditions noted are these: Homo sapiens, MM1.S, 96 h; for inhibition at 0.01 µM: read-out: Inhibition Rate at 10 nM (%); for inhibition at 0.5 µM: read-out: Inhibition Rate at 500 nM (%).
Experiment [3] deals with Human T lymphocytic leukemia cell line: Jurkat. Described as above. The conditions noted are these: 96 h.
The test system of experiment [4] is Human non-small cell lung cancer cell line: NCI-H1975. The description is as above. As to conditions: NCI-H1975, 96 h, read-out: Inhibitory activity (IC50, nM) on tumor cell proliferation, H1975.
Protocol: (§1) The tumor cells used herein were cultured in a cell culture medium listed in table 2 at 37°C in an incubator with 5% CO2. Prior to experimentation, all cell lines used were correctly identified by STR profiling, and tested negative for mycoplasma contamination using a mycoplasma detection kit through routine screenings.
(§2) The IC50 values of the compounds of the present disclosure (including the compounds in Table 1 and Examples) were determined using the CellTiter-Meiluncell Luminescent Cell Viability Assay Kit from Dalian Meilun Biotech Co., Ltd. The detailed procedure is as follows: Tumor cells were seeded in 96-well cell culture plates at the densities specified in Table 3. On the following day, the test compounds of the present disclosure were subjected to serial dilution. The dilution can be performed according to one of the following two methods: • (1) The first dilution method: The test compounds of the present disclosure (including the compounds in Table 1 and Examples) were subjected to 5-fold serial dilutions starting from a highest concentration of 2000 µM, resulting in a total of 9 concentrations from high to low (2000, 400, 80, 16, 3.2, 0.64, 0.128, 0.0256, 0.00512 µM). Subsequently, 0.5 µL of the test compound dilution was transferred into the 96-well plate containing the cells, with each well containing 100 µL of cell culture medium. […] Into the 96-well plate, the diluted test compounds and corresponding detection reagents were added, resulting in final test compound concentrations of 500 nM and 10 nM, respectively. The experimental procedure is described below using the diluted 2 µM test compound as an example.
(§3) 0.5 µL of the aforementioned diluted compound of the present disclosure (including the compounds in Table 1 and Examples) was added to the seeded cells in 100 µL of medium, yielding a final test compound concentration of 10 nM. After the cells were treated with the compounds of the present disclosure for a specified period, the cell viability assay reagent was added to the culture medium according to the kit's instructions to determine cell viability. […] All controls were treated using the same procedure as the compounds of the present disclosure. The growth inhibition curves for the compounds of the present disclosure were plotted using Prism GraphPad software, and the IC50 values were calculated therefrom.
In experiment [5] the test system is Human breast cancer cell (MCF-7). The experiment is described as above. The conditions noted are these: MCF7, 96 h; for inhibition at 0.01 µM: read-out: Inhibition Rate at 10 nM (%); for inhibition at 0.5 µM: read-out: Inhibition Rate at 500 nM (%).
The subject of experiment [6] is Human monocytic leukemia cell line: THP-1. Described as above. As to conditions: THP-1, 96 h; for inhibition at 0.01 µM: read-out: Inhibition Rate at 10 nM (%); for inhibition at 0.5 µM: read-out: Inhibition Rate at 500 nM (%).
Protocol: as §1, §2, §3
Experiment [7] concerns Human colon cancer cell line: SW620. Described as above. The conditions noted are these: SW-620, 96 h; for inhibition at 0.01 µM: read-out: Inhibition Rate at 10 nM (%); for inhibition at 0.5 µM: read-out: Inhibition Rate at 500 nM (%).
Protocol: as §1, §2, §3
For experiment [8], the system named is Human malignant melanoma cell line: A375. Described as above. The conditions noted are these: A-375, 96 h; for inhibition at 0.01 µM: read-out: Inhibition Rate at 10 nM (%); for inhibition at 0.5 µM: read-out: Inhibition Rate at 500 nM (%).
Protocol: as §1, §2, §3
Experiment [9] has as its system Human multiple myeloma peripheral blood B lymphocyte cell (RPMI-8226). The description is as above. The conditions noted are these: RPMI-8226, 96 h; for inhibition at 0.5 µM: read-out: Inhibition Rate at 500 nM (%).
Experiment [10] has as its system Human acute T lymphocytic leukemia cell (Molt4). The description is as above. As to conditions: MOLT-4, 96 h.
The test system of experiment [11] is Human myeloid monocytic leukemia cell (MV-4-11). Described as above. As to conditions: MV4-11, 96 h.
Experiment [12] has as its system Human T cell acute lymphoblastic leukemia cell (CCRF-CEM). Described as above. As to conditions: 96 h.
Protocol: as §1, §2, §3
In experiment [13] the test system is Human acute myeloid leukemia cell line: Kasumi-1. The experiment is described as above. The conditions noted are these: Kasumi 1, 96 h.
Where [14] appears, read: Western blot, 24 hours of compound treatment, compounds tested at 50 nM and 500 nM (concentration for the table not stated).
Setting [15] is: 24 hours treatment, compounds at 50 nM and 500 nM (concentration behind the class not stated).
[16] abbreviates: read-out: Inhibition Rate at 10 nM (%).
[17] abbreviates: read-out: Inhibition Rate at 500 nM (%).

T4 sequence (Q9UKT9 whole entry): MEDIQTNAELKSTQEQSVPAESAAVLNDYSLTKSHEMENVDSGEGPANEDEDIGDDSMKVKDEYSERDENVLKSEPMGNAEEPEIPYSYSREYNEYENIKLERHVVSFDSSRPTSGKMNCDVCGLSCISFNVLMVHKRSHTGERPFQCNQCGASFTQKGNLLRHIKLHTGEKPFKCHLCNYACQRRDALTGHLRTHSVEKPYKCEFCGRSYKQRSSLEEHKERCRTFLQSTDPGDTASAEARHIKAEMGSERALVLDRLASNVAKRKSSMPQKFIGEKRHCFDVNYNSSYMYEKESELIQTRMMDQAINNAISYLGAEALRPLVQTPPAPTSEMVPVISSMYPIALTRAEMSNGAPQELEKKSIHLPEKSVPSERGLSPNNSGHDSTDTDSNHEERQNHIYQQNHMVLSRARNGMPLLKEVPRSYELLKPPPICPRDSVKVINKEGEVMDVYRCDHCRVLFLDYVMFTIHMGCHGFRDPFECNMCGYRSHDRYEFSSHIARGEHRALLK
T4 sequence (Q96SW2 whole entry): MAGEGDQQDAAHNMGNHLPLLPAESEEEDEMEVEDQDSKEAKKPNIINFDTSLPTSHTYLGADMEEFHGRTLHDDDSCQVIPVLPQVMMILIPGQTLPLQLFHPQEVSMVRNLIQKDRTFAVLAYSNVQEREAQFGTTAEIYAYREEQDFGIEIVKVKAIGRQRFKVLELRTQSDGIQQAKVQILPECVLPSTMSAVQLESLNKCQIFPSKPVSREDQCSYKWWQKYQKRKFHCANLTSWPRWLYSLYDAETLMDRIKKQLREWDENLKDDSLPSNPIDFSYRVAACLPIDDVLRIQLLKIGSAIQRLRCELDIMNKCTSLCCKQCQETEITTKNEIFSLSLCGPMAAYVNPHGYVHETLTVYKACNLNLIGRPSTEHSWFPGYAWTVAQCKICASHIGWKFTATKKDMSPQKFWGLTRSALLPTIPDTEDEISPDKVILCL
T4 sequence (Q16531 whole entry partner): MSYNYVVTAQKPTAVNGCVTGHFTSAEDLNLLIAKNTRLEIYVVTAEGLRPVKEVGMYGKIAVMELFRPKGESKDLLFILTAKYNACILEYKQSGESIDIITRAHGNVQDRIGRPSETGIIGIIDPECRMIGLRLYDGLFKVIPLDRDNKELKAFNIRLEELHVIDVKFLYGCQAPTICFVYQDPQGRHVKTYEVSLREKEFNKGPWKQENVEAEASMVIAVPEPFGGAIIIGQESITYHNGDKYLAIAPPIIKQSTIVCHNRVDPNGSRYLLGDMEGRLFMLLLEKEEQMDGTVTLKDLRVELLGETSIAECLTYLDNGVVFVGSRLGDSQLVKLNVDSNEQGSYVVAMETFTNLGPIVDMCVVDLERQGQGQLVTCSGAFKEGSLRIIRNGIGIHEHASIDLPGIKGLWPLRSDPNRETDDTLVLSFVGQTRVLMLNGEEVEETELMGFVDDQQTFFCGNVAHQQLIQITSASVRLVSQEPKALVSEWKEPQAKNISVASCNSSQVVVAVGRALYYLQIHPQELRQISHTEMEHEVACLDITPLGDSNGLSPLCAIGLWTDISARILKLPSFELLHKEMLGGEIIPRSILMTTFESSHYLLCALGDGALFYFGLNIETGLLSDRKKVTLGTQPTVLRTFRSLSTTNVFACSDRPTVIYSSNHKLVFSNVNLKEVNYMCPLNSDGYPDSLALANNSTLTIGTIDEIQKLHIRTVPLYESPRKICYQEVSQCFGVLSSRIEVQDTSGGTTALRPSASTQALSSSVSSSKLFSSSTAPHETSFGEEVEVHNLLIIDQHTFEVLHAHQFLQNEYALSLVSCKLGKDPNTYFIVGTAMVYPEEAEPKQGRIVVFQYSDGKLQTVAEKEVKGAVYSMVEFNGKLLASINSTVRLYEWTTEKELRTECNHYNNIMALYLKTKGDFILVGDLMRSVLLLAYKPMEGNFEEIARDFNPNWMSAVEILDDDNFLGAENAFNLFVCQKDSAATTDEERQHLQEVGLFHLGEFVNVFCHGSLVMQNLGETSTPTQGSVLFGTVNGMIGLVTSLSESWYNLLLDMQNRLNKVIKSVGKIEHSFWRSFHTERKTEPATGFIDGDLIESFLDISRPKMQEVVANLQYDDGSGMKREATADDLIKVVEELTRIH
T6 sequence (Q96SW2 whole entry): as the sequence (Q96SW2 whole entry) above
T3 sequence (Q9UKS7 whole entry): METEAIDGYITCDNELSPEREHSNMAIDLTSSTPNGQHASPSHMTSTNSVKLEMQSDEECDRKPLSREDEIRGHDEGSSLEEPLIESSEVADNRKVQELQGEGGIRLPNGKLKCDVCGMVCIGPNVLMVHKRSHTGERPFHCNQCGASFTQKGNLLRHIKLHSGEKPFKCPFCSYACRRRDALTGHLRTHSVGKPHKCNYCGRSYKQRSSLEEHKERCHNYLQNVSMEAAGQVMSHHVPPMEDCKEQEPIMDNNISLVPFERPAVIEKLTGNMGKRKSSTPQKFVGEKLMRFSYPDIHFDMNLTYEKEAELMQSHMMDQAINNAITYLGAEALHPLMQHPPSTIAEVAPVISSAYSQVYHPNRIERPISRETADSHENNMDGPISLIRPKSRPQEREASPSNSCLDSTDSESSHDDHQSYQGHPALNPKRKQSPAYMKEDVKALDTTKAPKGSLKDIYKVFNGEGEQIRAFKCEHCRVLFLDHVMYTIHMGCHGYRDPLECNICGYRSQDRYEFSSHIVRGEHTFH
T3 sequence (Q96SW2 whole entry): as the sequence (Q96SW2 whole entry) above
T3 sequence (Q16531 whole entry partner): as the sequence (Q16531 whole entry partner) above
T5 sequence (P30291 whole entry): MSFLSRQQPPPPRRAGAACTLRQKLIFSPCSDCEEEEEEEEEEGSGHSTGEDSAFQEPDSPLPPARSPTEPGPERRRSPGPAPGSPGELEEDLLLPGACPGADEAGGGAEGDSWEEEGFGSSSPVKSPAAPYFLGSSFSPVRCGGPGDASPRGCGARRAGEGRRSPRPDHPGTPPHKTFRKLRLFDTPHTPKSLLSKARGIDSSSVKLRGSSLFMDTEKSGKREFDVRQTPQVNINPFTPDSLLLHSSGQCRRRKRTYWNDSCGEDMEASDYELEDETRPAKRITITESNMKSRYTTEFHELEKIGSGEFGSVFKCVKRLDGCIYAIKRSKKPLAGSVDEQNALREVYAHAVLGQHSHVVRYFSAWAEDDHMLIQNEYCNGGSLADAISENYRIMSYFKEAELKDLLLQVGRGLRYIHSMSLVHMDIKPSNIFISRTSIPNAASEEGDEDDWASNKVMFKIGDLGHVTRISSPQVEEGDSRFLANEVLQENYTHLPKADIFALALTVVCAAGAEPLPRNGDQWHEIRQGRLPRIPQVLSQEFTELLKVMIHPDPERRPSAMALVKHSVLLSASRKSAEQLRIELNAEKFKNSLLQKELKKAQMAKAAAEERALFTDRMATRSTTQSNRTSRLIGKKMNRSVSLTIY
T5 sequence (Q96SW2 whole entry): as the sequence (Q96SW2 whole entry) above
T5 sequence (Q16531 whole entry partner): as the sequence (Q16531 whole entry partner) above
T2 sequence (Q13422 whole entry): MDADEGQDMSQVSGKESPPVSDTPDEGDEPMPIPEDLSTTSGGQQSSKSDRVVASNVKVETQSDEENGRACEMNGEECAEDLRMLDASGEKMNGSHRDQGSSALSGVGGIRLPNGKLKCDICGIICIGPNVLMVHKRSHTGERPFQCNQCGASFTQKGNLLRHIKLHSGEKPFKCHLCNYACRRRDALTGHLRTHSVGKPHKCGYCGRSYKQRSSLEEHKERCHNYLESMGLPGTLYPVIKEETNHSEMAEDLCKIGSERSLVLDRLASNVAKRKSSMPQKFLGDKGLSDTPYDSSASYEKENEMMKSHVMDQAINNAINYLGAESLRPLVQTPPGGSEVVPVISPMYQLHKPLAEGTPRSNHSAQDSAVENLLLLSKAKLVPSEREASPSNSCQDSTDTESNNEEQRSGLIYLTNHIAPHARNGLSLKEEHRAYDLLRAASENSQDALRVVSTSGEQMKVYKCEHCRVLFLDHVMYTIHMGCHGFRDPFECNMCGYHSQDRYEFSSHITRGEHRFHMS
T2 sequence (Q96SW2 whole entry): as the sequence (Q96SW2 whole entry) above
T2 sequence (Q16531 whole entry partner): as the sequence (Q16531 whole entry partner) above
T1 sequence (P48729 whole entry): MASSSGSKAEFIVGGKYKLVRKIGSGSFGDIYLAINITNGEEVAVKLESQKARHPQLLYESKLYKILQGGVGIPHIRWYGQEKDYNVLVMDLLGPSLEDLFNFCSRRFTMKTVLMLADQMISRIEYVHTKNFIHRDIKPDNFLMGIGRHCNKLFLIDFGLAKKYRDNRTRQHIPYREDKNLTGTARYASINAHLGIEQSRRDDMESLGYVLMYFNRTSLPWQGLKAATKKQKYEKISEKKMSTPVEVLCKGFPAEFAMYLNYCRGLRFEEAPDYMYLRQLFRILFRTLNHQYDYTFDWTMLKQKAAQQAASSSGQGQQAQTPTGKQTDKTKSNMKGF
T1 sequence (Q96SW2 whole entry): as the sequence (Q96SW2 whole entry) above
T1 sequence (Q16531 whole entry partner): as the sequence (Q16531 whole entry partner) above

Regarding `Cc1ccc(Sc2ccccc2N2CCN(Cc3ccc4c(c3)C(=S)N(C3CCC(=O)NC3=O)C4)CC2)c(C)c1` (centres unmarked) [GT-05038, 3-(6-((4-(2-((2,4-dimethylphenyl)thio)phenyl)piperazin-1-yl)methyl)-1-thioxoisoindolin-2-yl)piperidine-2,6-dione], the “CK1α substrate protein remaining %” value at CK1α (setting [14]) is given as “B (80%< substrate protein remaining %≤ 100%)”. On IKZF1 (setting [14]), the “IKZF 1 substrate protein remaining %” value is “A (0% ≤ substrate protein remaining % ≤ 80%)”. Also, the “IKZF2 substrate protein remaining %” value on IKZF2 (setting [14]) is “A (0% ≤ substrate protein remaining % ≤ 80%)”. The “IKZF3 substrate protein remaining %” value at IKZF3 (setting [14]) is “A (0% ≤ substrate protein remaining % ≤ 80%)”. In addition, the “Wee1 substrate protein remaining %” value at WEE1 (setting [14]) is reported as “B (80%< substrate protein remaining %≤ 100%)”. The “GSPT1 substrate protein remaining %” value in the experiment with GSPT1 (setting [14]) is “A (0% ≤ substrate protein remaining % ≤ 80%)”. The IC50 in [1] (CRBN binding, HTRF, 3 hours at room temperature, read-out: HTRF IC50) was in the range of 0.5 to 1 µM; in [2] (read-out: Inhibitory activity (IC50, nM) on tumor cell proliferation, MM.1S) it was 100 to 500 nM; in experiment [3] (read-out: Inhibitory activity (IC50, nM) on tumor cell proliferation, Jurkat) it was 500 to 1000 nM; in experiment [4] it was 500 to 1000 nM.

In the case of `CC(C)c1cc2c(C3=CCN(Cc4ccc5c(c4)CN(C4CCC(=O)NC4=O)C5=S)CC3)ncnc2s1` (centres unmarked) [GT-09317, 3-(5-((4-(6-isopropylthieno[2,3-d]pyrimidin-4-yl)-3,6-dihydropyridin-1(2H)-yl)methyl)-1-thioxoisoindolin-2-yl)piperidine-2,6-dione], the “CK1α substrate protein remaining %” value on CK1α (setting [15]) is reported as “B (80%< substrate protein remaining %≤ 100%)”. On IKZF1 (setting [15]), the “IKZF 1 substrate protein remaining %” value is “A (0% ≤ substrate protein remaining % ≤ 80%)”. Further, the “IKZF2 substrate protein remaining %” value at IKZF2 (setting [15]) is recorded as “A (0% ≤ substrate protein remaining % ≤ 80%)”. Moreover, the “IKZF3 substrate protein remaining %” value on IKZF3 (setting [15]) is reported as “A (0% ≤ substrate protein remaining % ≤ 80%)”. Also, at WEE1 (setting [15]), the “Wee1 substrate protein remaining %” value was “A (0% ≤ substrate protein remaining % ≤ 80%)”. The “GSPT1 substrate protein remaining %” value with GSPT1 (setting [15]) is “A (0% ≤ substrate protein remaining % ≤ 80%)”. Besides, the inhibition at 0.5 µM was 40 to 53% in experiment [1]; 60 to 70% in [2]; 80 to 100% in experiment [5]; 100 to 110% in [6]; 100 to 110% in experiment [7]; 80 to 100% in [8]. For the same compound, the inhibition at 2 µM in [1] was in the range of 80 to 100%. Also, the inhibition at 0.01 µM in experiment [2] was in the range of 10 to 20%; in experiment [5], 5 to 10%; in experiment [6] it was 80 to 100%; in experiment [7] it was 80 to 100%; in experiment [8] it was 50 to 60%.

As for `O=C1CCC(N2Cc3cc(CN4CC=C(c5ncnc6sc(-c7ccccc7)cc56)CC4)ccc3C2=S)C(=O)N1` (centres unmarked) [GT-09319, 3-(5-((4-(6-phenylthieno[2,3-d]pyrimidin-4-yl)-3,6-dihydropyridin-1(2H)-yl)methyl)-1-thioxoisoindolin-2-yl)piperidine-2,6-dione], the “CK1α substrate protein remaining %” value at CK1α (setting [15]) is “B (80%< substrate protein remaining %≤ 100%)”. Also, the “IKZF 1 substrate protein remaining %” value at IKZF1 (setting [15]) is on record as “A (0% ≤ substrate protein remaining % ≤ 80%)”. For the same compound, on IKZF2 (setting [15]), the “IKZF2 substrate protein remaining %” value is listed as “A (0% ≤ substrate protein remaining % ≤ 80%)”. For the same compound, on IKZF3 (setting [15]), the “IKZF3 substrate protein remaining %” value is recorded as “A (0% ≤ substrate protein remaining % ≤ 80%)”. Moreover, at WEE1 (setting [15]), the “Wee1 substrate protein remaining %” value is listed as “A (0% ≤ substrate protein remaining % ≤ 80%)”. The “GSPT1 substrate protein remaining %” value in the experiment on GSPT1 (setting [15]) is given as “A (0% ≤ substrate protein remaining % ≤ 80%)”. The inhibition at 0.5 µM in experiment [1] was in the range of 60 to 80%; in [9] it was 50 to 60%; in [5] it was 70 to 80%; in experiment [6], 80 to 100%; in experiment [7], 80 to 100%; in [8], 80 to 100%. For the same compound, the inhibition at 2 µM in [1] lay within 80 to 100%. The inhibition at 0.01 µM in experiment [9] (setting [16]) was 5 to 10%; in experiment [5], 20 to 30%; in [6], 80 to 100%; in [7], 70 to 80%; in experiment [8], 40 to 50%.

Consider `O=C1CCC(N2Cc3cc(CN4CC=C(c5ncc6ccsc6n5)CC4)ccc3C2=S)C(=O)N1` (centres unmarked) [GT-09327, 3-(5-((4-(thieno[2,3-d]pyrimidin-2-yl)-3,6-dihydropyridin-1(2H)-yl)methyl)-1-thioxoisoindolin-2-yl)piperidine-2,6-dione], for which the “CK1α substrate protein remaining %” value on CK1α (setting [15]) is reported as “B (80%< substrate protein remaining %≤ 100%)”. Besides, on IKZF1 (setting [15]), the “IKZF 1 substrate protein remaining %” value is recorded as “B (80%< substrate protein remaining %≤ 100%)”. Also, at IKZF2 (setting [15]), the “IKZF2 substrate protein remaining %” value was “A (0% ≤ substrate protein remaining % ≤ 80%)”. Also, on IKZF3 (setting [15]), the “IKZF3 substrate protein remaining %” value was “B (80%< substrate protein remaining %≤ 100%)”. Also, the “Wee1 substrate protein remaining %” value on WEE1 (setting [15]) was “A (0% ≤ substrate protein remaining % ≤ 80%)”. Besides, the “GSPT1 substrate protein remaining %” value in the experiment on GSPT1 (setting [15]) is “A (0% ≤ substrate protein remaining % ≤ 80%)”. Also, the inhibition at 0.5 µM was 60 to 80% in [1], 80 to 100% in experiment [6], 80 to 100% in experiment [7] and 80 to 100% in [8]. In addition, the inhibition at 2 µM in [1] was in the range of 80 to 100%. In addition, the figures for the inhibition at 0.01 µM in experiment [6], in experiment [7] and in experiment [8] were 20 to 30%, 30 to 40% and 20 to 30%, respectively.

As to `Nc1cccc2c1CN(C1CCC(=O)NC1=O)C2=O` (centres unmarked) [lenalidomide, reference compound], the inhibition at 0.01 µM fell in the range of 10 to 20% in experiment [2]; 0 to 5% in [10] (setting [16]); 10 to 18% in experiment [11] (setting [16]); 0 to 5% in experiment [5]; 10 to 20% in experiment [12] (setting [16]); 5 to 10% in [13] (setting [16]). Further, the inhibition at 0.01 µM lay in the range of 20 to 30% in experiment [3] (setting [16]), 0 to 5% in experiment [6], 5 to 10% in experiment [7] and 5 to 10% in [8]. Besides, the inhibition at 0.5 µM in [2] is 30 to 40%; in [9], 10 to 20%; in experiment [10] (setting [17]), 0 to 5%; in experiment [11] (setting [17]), 10 to 18%; in experiment [12] (setting [17]) it was 10 to 20%; in [13] (setting [17]) it was 0 to 5%. The inhibition at 0.5 µM in experiment [3] (setting [17]) lay in the range of 10 to 20%; in experiment [6], 5 to 10%; in [7] it was 5 to 10%; in experiment [8], 5 to 10%.
